Consider 46 molecules from US8993585B2, “Cyclic amine substituted pyrimidinediamines as PKC inhibitors” (Rigel Pharmaceuticals, Inc., priority 2007, dated 2015).

The subject of the first assay is Human primary T cells. The experiment in a line: IL-2 ELISA, Human Primary T Cell, Anti-CD3+CD28+ (Example 3). It counts as cell-based. Particulars: Homo sapiens, T-cell, 24 h, anti-CD3+CD28 stimulation. As to the method: Human primary T cell isolation and culture: Human primary T cells were prepared as follows. […] The cells at the serum:ficoll interface were recovered and washed twice with 5 volumes of PBS. […] The primary T-cells were then washed twice with PBS to remove the IL-2.
Primary T cell stimulation and IL2 ELISA: Human primary T cells (100,000 cells per well) were pre-incubated with or without test compound in Yssel's medium for 1 hr at 37° C. Cells were then stimulated by transferring them to round-bottom 96-well plates pre-coated with 1 ug/ml αCD3 and 5 μg/ml αCD28. For counter assay, cells were instead stimulated by adding 8× stock solutions of PMA and ionomycin in Yssels (for final concentrations of 0.5 ng/ml PMA and 0.1 uM ionomycin, both from Calbiochem).
By IC50 is commonly meant the concentration that inhibits the measured activity by half. For `CN1C(=O)CCc2cc(Nc3ncc(F)c(NC4CC(C)(C)N(C)C(C)(C)C4)n3)ccc21` [II-4], the midpoint of inhibition, the IC50, lay at 1720 nM.
The molecule `CN1C(C)(C)CC(Nc2nc(Nc3nc(C#N)c(C#N)[nH]3)ncc2F)CC1(C)C` [II-22] returned an IC50 of 37300 nM.
The same measure, in the same setting: the same measure for `COC(=O)C(C)N1C(C)(C)CC(Nc2nc(Nc3ccc(C)c(C#N)c3)ncc2F)CC1(C)C` (stereo not shown) [Compound I-296]: 1040 nM.
The same measure, in the same setting: the same measure for `CN1C(C)(C)CC(N(Cc2ccc3ccccc3n2)c2nc(Nc3ccc4c(c3)OCCO4)ncc2F)CC1(C)C` [II-89]: 7670 nM; for `CN1C(C)(C)CC(Nc2nc(Nc3ccc4c(c3)OCCCO4)ncc2F)CC1(C)C` [II-43]: 1470 nM.
Same read-out and setting: in the case of `CN1C(C)(C)CC(Nc2nc(Nc3nc4ccc(F)cc4s3)ncc2F)CC1(C)C` [II-131] it was 990 nM.
Regarding `CN1C(C)(C)CC(Nc2nc(Nc3cc4c(cc3Br)OC(F)(F)O4)ncc2F)CC1(C)C` [II-122], the IC50 is 2160 nM.
Same read-out and setting: in the case of `CCN(CC)c1ccc(-c2csc(Nc3ncc(F)c(NC4CC(C)(C)N(C)C(C)(C)C4)n3)n2)cc1` [II-135] it was 3600 nM.
Still for that read-out and setting: in the case of `CN1C(C)(C)CC(N(Cc2ccc(-c3ccccc3C#N)cc2)c2nc(Nc3ccc4c(c3)OCCO4)ncc2F)CC1(C)C` [II-91] it was 3860 nM; in that of `CN1C(C)(C)CC(Nc2nc(Nc3ccc4c(c3)OC(C)(C)C(=O)N4CCCF)ncc2F)CC1(C)C` [II-78], 369 nM; in that of `CN1C(C)(C)CC(Nc2nc(Nc3ccc4c(c3)OCc3nccn3-4)ncc2F)CC1(C)C` [II-11], 1320 nM.
In the case of `CN1C(C)(C)CC(Nc2nc(N[C@@H]3CCc4ccccc43)ncc2F)CC1(C)C` [II-84], the IC50 was determined as 17500 nM.
The same measure, in the same setting: in the case of `CN1CCN(c2ccc(Nc3ncc(F)c(N(Cc4ccccc4)C4CC(C)(C)N(C)C(C)(C)C4)n3)cc2C(F)(F)F)CC1` [Compound I-311] it was 804 nM; in that of `COc1cc(Nc2ncc(OC)c(NC3CC(C)(C)N(C)C(C)(C)C3)n2)cc(OC)c1` [Compound I-423], 3500 nM; in that of `CCCN1C(=O)C(C)(C)Oc2cc(Nc3ncc(F)c(NC4CC(C)(C)N(C)C(C)(C)C4)n3)ccc21` [II-48], 263 nM.
As to `CN1C(C)(C)CC(Nc2nc(Nc3ccc(NCc4ccccc4)cn3)ncc2F)CC1(C)C` [II-85], it took 3660 nM to reach half-maximal inhibition (IC50).
`COc1cc(Nc2ncc(F)c(N(Cc3ccccc3)C3CC(C)(C)N(C)C(C)(C)C3)n2)cc(OC)c1` [Compound I-308]: the midpoint of inhibition, the IC50, lay at 809 nM.
Molecule `CN1C(=O)C(F)(F)Oc2cc(Nc3ncc(F)c(NC4CC(C)(C)N(C)C(C)(C)C4)n3)cnc21` [II-26] showed an IC50 of 951 nM.
In turn, `COc1cc(Nc2ncc(F)c(N(Cc3ccc4ccccc4n3)C3CC(C)(C)N(C)C(C)(C)C3)n2)cc(OC)c1` [Compound I-322] had an IC50 of 5790 nM.
On the same count and under the same terms, in the case of `CCN(CC)C1CCC(Nc2nc(Nc3ccc(OC)c(Cl)c3)ncc2F)CC1` (stereo not shown) [IV-5, N2-(3-Chloro-4-methoxy)phenyl-N4-(4-diethylamino)cyclohexyl-5-fluoro-2,4-pyrimidinediamine] it was 4610 nM.

Still in this assay, the particulars now being: T-cell, anti-CD3+CD28 stimulation, 24 hours.
With `CN1C(C)(C)CC(N(Cc2ccccc2)c2nc(Nc3ccc4c(c3)OCCO4)ncc2F)CC1(C)C` [II-86], the IC50 amounted to 1260 nM.
Still for that read-out and setting: the same measure for `CN1C(C)(C)CC(Nc2nc(Nc3ccc4c(c3)OCCO4)ncc2C#C[Si](C)(C)C)CC1(C)C` [II-150]: 3580 nM.

Still in this assay, the particulars now being: anti-CD3+CD28 stimulation, 24 hours.
Consider `CN1CCN(c2ccc(Nc3ncc(F)c(NC4CC(C)(C)N(C)C(C)(C)C4)n3)cc2C(N)=O)CC1` [Compound I-53], for which the IC50 was 1940 nM.
Still for that read-out and setting: the same measure for `CN1C(C)(C)CC(Nc2nc(Nc3ccc(-c4ccncc4)c(Cl)c3)ncc2F)CC1(C)C` [Compound I-99]: 304 nM; for `COc1cc(Nc2ncc(F)c(NC3CC(C)(C)N(C)C(C)(C)C3)n2)ccc1-n1cccc1` [Compound I-349]: 1040 nM; for `CN1C(C)(C)CC(Nc2nc(Nc3ccc(N4CCNCC4)c(Cl)c3)ncc2[N+](=O)[O-])CC1(C)C` [Compound I-77]: 2590 nM.
Same read-out and setting: the same measure for `COc1cc(Nc2ncc(F)c(NC3CC(C)(C)N(C)C(C)(C)C3)n2)cc(C(F)(F)F)c1` [Compound I-145]: 897 nM; for `CN1C(C)(C)CC(Nc2nc(Nc3ccc(Br)c(F)c3)ncc2F)CC1(C)C` [Compound I-110]: 491 nM; for `CN1C(C)(C)CC(Nc2nc(Nc3cc(Cl)cc(Cl)c3)ncc2F)C1(C)C` (stereo not shown) [Compound I-279, 5-Fluoro-N2-(3,5-dichloro) phenyl-N4-(1,2,2,5,5-pentamethylpyrrolidin-3-yl)-2,4-pyrimidinediamine]: 7440 nM.
The same measure, in the same setting: in the case of `CN1C(C)(C)CC(Nc2nc(Nc3ccc(-c4cc5ccccc5s4)c(C(F)(F)F)c3)ncc2F)CC1(C)C` [Compound I-114] it was 1880 nM.
The molecule `CN1C(C)(C)CC(Nc2nc(Nc3ccc(F)c(-c4ccoc4)c3)ncc2F)CC1(C)C` [Compound I-192] showed an IC50 of 941 nM.
Still for that read-out and setting: the same measure for `Cc1ccc(Nc2ncc(Br)c(NC3CC(C)(C)N(C)C(C)(C)C3)n2)cc1C#N` [Compound I-277]: 206 nM; for `CN1CCN(c2ccc(Nc3ncc(F)c(NC4CC(C)(C)NC(C)(C)C4)n3)cc2C(F)(F)F)CC1` [Compound I-255]: 236 nM.
In turn, `COc1ccc(Nc2ncc(F)c(NC3CCN(CCO)CC3)n2)cc1Cl` [III-5, N2-(3-Chloro-4-methoxy)phenyl-5-fluoro-N4-[1-(2-hydroxyethyl)piperidin-4-yl]-2,4-pyrimidinediamine] yielded an IC50 of 3260 nM.
In turn, `COc1cccc(Nc2ncc(F)c(NC3CCC(C)(C)N(C)C(C)(C)C3)n2)c1` (stereo not shown) [Compound I-269, 5-Fluoro-N2-[3-methoxy]phenyl-N4-(1,2,2,7,7-pentamethylazepan-4-yl)-2,4-pyrimidinediamine] returned an IC50 of 8200 nM.
On the same count and under the same terms, in the case of `COc1cc(Nc2ncc(C#N)c(NC3CC(C)(C)N(C)C(C)(C)C3)n2)cc(-n2cnnn2)c1` [Compound I-404] it was 170 nM; in that of `CC1(C)CC(Nc2nc(Nc3ccc(OCCN4CCOCC4)c(Cl)c3)ncc2C#N)CC(C)(C)N1` [Compound I-445], 910 nM.
Still for that read-out and setting: the same measure for `CCOC(=O)c1cnc(Nc2ccc(N3CCN(C)CC3)c(C(F)(F)F)c2)nc1NC1CC(C)(C)N(C)C(C)(C)C1` [Compound I-82]: 3210 nM.
As to `CN1C(C)(C)CC(Nc2nc(Nc3cc(-c4ccncc4)cc(C(F)(F)F)c3)ncc2F)CC1(C)C` [Compound I-201], the IC50 was found to be 522 nM.
The same measure, in the same setting: in the case of `CCc1cc(Nc2ncc(F)c(NC3CC(C)(C)N(C)C(C)(C)C3)n2)cc(C#N)c1Cl` [Compound I-128] it was 876 nM.
Turning to `CC1(C)CC(Nc2nc(Nc3cc(Cl)cc(Cl)c3)ncc2F)CC(C)(C)N1CCN` [Compound I-447], inhibition was half-maximal at 910 nM (IC50).
On the same count and under the same terms, in the case of `CN1C(C)(C)CC(Nc2nc(Nc3ccc(C(=O)NCCc4ccccn4)c(Cl)c3)ncc2F)CC1(C)C` [Compound I-362] it was 667 nM.
The same measure, in the same setting: the same measure for `Cc1csc(-c2ccc(Nc3ncc(F)c(NC4CC(C)(C)N(C)C(C)(C)C4)n3)cc2C(F)(F)F)c1` [Compound I-116]: 1230 nM; for `Cc1ccc(Nc2ncc(F)c(NC3CC(C)(C)N(C)C(C)(C)C3)n2)cc1-n1cnnn1` [Compound I-398]: 50 nM.
The same measure, in the same setting: in the case of `CNC(=O)COc1cccc(Nc2ncc(F)c(NC3CC(C)(C)N(C)C(C)(C)C3)n2)c1` [Compound I-136] it was 1550 nM.

The assay is the same for the next values; noted with them: anti-CD3+CD28 stimulation, 24 hours, citrate salt.
As to `COc1ccc(Nc2ncc(F)c(NC3CC(C)(C)N(C)C(C)(C)C3)n2)cc1OC(F)F` [Compound I-359], the IC50 was found to be 118 nM.
